One assay concerns IL-1β. Kind of assay: Whole bovine blood assay, LPS-induced IL-1β (inhibition / overstimulation). Format: cell-based. The conditions noted are these: Bos taurus, 18 h, drug concentration giving overstimulation (OS) of LPS-induced IL-1β, top concentration 250 μM. The gist of the method:
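IL-1β was quantified by MSD U-Plex chemiluminescence in plasma and normalized to BCA total protein. Bovine blood was pretreated 4 h at 37 °C with compound dilutions before 18 h LPS challenge (1 μg/mL final). Rising IL-1β at high concentrations was recorded as overstimulation.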

The test system of the next assay is TNF-α. As to the kind of experiment: Whole bovine blood assay, LPS-induced TNF-α. Format: cell-based. To be noted: Bos taurus, fresh whole bovine blood, LPS stimulant; top drug concentration 250 μM. The method, boiled down:
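Fresh heparinized bovine whole blood was preincubated with compound 4 h at 37 °C, then stimulated with LPS (final 1 μg/mL) for 18 h at 37 °C. Plasma TNF-α was quantified by MSD U-Plex chemiluminescent immunoassay, normalized to total protein (BCA), and IC50 taken for LPS-induced TNF-α inhibition.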

For the molecule `CC[C@H]1OC(=O)[C@H](C)[C@@H](O)[C@H](C)[C@@H](O[C@@H]2O[C@H](C)C[C@H](N(C)S(=O)(=O)c3ccccc3)[C@H]2Oc2ccc(OC)cc2)[C@](C)(O)C[C@@H](C)CN[C@H](C)[C@@H](O)[C@]1(C)O` [Example A-9, N-((2S,3R,4S,6R)-2-(((2R,3S,4R,5R,8R,10R,11R,12S,13S,14R)-2-ethyl-3,4,10,13-tetrahydroxy-3,5,8,10, 12, 14-hexamethyl-15-oxo-1-oxa-6-azacyclopentadecan-11-yl)oxy)-3-(4-methoxyphenoxy)-6-methyltetrahydro-2H-pyran-4-yl)-N-methylbenzenesulfonamide], the minimal effective concentration – broadly, the smallest amount tested that counted as effective – in the assay on IL-1β came to 16 µM. For the same molecule, in the assay with TNF-α, the midpoint of inhibition, the IC50, lay at 4 µM.
In the assay on IL-1β, `CCCNC[C@]1(O)[C@H](C)O[C@@H](O[C@H]2[C@H](C)[C@@H](O[C@@H]3O[C@H](C)C[C@H](N(C)S(=O)(=O)c4ccc(C)cc4)[C@H]3O)[C@](C)(O)C[C@@H](C)CN[C@H](C)[C@@H](O)[C@](C)(O)[C@@H](CC)OC(=O)[C@@H]2C)C[C@@]1(C)OC` [Example B-26, N-((2S,3R,4S,6R)-2-(((2R,3S,4R,5R,8R,10R,11R,12S,13S,14R)-2-ethyl-3,4,10-trihydroxy-13-(((2R,4R,5S,6S)-5-hydroxy-4-methoxy-4,6-dimethyl-5-((propylamino)methyl)tetrahydro-2H-pyran-2-yl)oxy)-3,5,8,10,12,14-hexamethyl-15-oxo-1-oxa-6-azacyclopentadecan-11-yl)oxy)-3-hydroxy-6-methyltetrahydro-2H-pyran-4-yl)-N,4-dimethylbenzenesulfonamide] yielded a minimal effective concentration of 16 µM. Besides, in the assay with TNF-α, the IC50 (in general, the point on the concentration scale where inhibition reaches its midpoint) turned out to be 20 µM.
Turning to `CCCNC[C@]1(O)[C@H](C)O[C@@H](O[C@H]2[C@H](C)[C@@H](O[C@@H]3O[C@H](C)C[C@H](N(C)S(=O)(=O)Nc4ccc(C(F)(F)F)cc4)[C@H]3O)[C@](C)(O)C[C@@H](C)CN[C@H](C)[C@@H](O)[C@](C)(O)[C@@H](CC)OC(=O)[C@@H]2C)C[C@@]1(C)OC` [Example B-50, (2R,3S,4R,5R,8R,10R,11R,12S,13S, 14R)-2-ethyl-3,4,10-trihydroxy-13-[(2R,4R,5S,6S)-5-hydroxy-4-methoxy-4,6-dimethyl-5-(propylaminomethyl)oxan-2-yl]oxy-11-[(2S,3R,4S,6R)-3-hydroxy-6-methyl-4-[methyl-[[4-(trifluoromethyl)phenyl]sulfamoyl]amino]oxan-2-yl]oxy-3,5,8, 10, 12, 14-hexamethyl-15-oxo-1-oxa-6-azacyclopentadecane], the minimal effective concentration in the assay on IL-1β was found to be 6 µM.
Take `CC[C@H]1OC(=O)[C@H](C)[C@@H](O[C@H]2C[C@@](C)(OC)[C@](O)(CN3CCCCC3)[C@H](C)O2)[C@H](C)[C@@H](O[C@@H]2O[C@H](C)C[C@H](N(C)S(=O)(=O)c3ccc(Cl)cc3)[C@H]2O)[C@](C)(O)C[C@@H](C)CN[C@H](C)[C@@H](O)[C@]1(C)O` [Example C-4, 4-chloro-N-((2S,3R,4S,6R)-2-(((2R,3S,4R,5R,8R,10R,11R,12S,13S,14R)-2-ethyl-3,4,10-trihydroxy-13-(((2R,4R,5S,6S)-5-hydroxy-4-methoxy-4,6-dimethyl-5-(piperidin-1-ylmethyl)tetrahydro-2H-pyran-2-yl)oxy)-3,5,8, 10, 12, 14-hexamethyl-15-oxo-1-oxa-6-azacyclopentadecan-11-yl)oxy)-3-hydroxy-6-methyltetrahydro-2H-pyran-4-yl)-N-methylbenzenesulfonamide]: the minimal effective concentration in the assay with IL-1β worked out at 16 µM. The molecule further yielded an IC50 in the assay on TNF-α of 5 µM.
`CC[C@H]1OC(=O)[C@H](C)[C@@H](O[C@H]2C[C@@](C)(OC)[C@](O)(CN3CCCCC3)[C@H](C)O2)[C@H](C)[C@@H](O[C@@H]2O[C@H](C)C[C@H](N(C)S(=O)(=O)Nc3ccc(C(F)(F)F)cc3)[C@H]2O)[C@](C)(O)C[C@@H](C)CN[C@H](C)[C@@H](O)[C@]1(C)O` [Example C-11, (2R,3S,4R,5R,8R,10R,11R,12S, 13S, 14R)-2-ethyl-3,4, 10-trihydroxy-13-[(2R,4R,5S,6S)-5-hydroxy-4-methoxy-4,6-dimethyl-5-(piperidin-1-ylmethyl)oxan-2-yl]oxy-11-[(2S,3R,4S,6R)-3-hydroxy-6-methyl-4-[methyl-[[4-(trifluoromethyl)phenyl]sulfamoyl]amino]oxan-2-yl]oxy-3,5,8, 10, 12, 14-hexamethyl-15-oxo-1-oxa-6-azacyclopentadecane] showed an IC50 in the assay on TNF-α of 17 µM.
In the case of `CCCNC[C@]1(O)[C@H](C)O[C@@H](O[C@H]2[C@H](C)[C@@H](O[C@@H]3O[C@H](C)C[C@H](NC)[C@H]3O)[C@](C)(O)C[C@@H](C)CN[C@H](C)[C@@H](O)[C@](C)(O)[C@@H](CC)OC(=O)[C@@H]2C)C[C@@]1(C)OC` [Example M9, (2R,3S,4R,5R,8R,10R,11R,12S,13S,14R)-2-ethyl-3,4, 10-trihydroxy-13-(((2R,4R,5S,6S)-5-hydroxy-4-methoxy-4,6-dimethyl-5-((propylamino)methyl)-tetrahydro-2H-pyran-2-yl)oxy)-11-(((2S,3R,4S,6R)-3-hydroxy-6-methyl-4-(methylamino)tetrahydro-2H-pyran-2-yl)oxy)-3,5,8,10,12,14-hexamethyl-1-oxa-6-azacyclopentadecan-15-one], in the assay on TNF-α, the IC50 was 250 µM.

(Values after patent US20250236616A1, “IMMUNOMODULATING AZALIDES” (Zoetis Services LLC, priority 2021, published 2025).)
